Patent US10851109B2, “Compositions and methods of using the same for treatment of neurodegenerative and mitochondrial disease” (Mitokinin, Inc., priority 2014, dated 2020)

Key:
SH-SYSY cells = assay: Modulation of PINK1: Caspase-Glo caspase 3/7 cleavage after MG-132 in SH-SYSY cells; assay type: cell-based; conditions: then 25 uM MG-132 for 16 hours, % of kinetin's caspase cleavage values; for Run1 Compound (avg as % kinetin): Run1, compound 96 hours; for Run2 Compound (avg as % kinetin): Run2, compound 96 hours; for Run3 Compound (avg as % kinetin): Run3, compound 96 hours
Experimental: We grew SH-SYSY cells in 1:1 mix of DMEM and F12 supplemented with 10% FBS and Pen/Strep (1×) antibiotics on 96 well plates (˜5,000 cells/well) at 37 degrees Celsius in 90 ul per well. We added 10 ul of 10× mix of the compounds identified below in a DMSO and medium mix to the cells. (min. 2 wells per compound per plate), allowed it to incubate for 96 hours at 37 degrees Celsius, then added 25 uM MG-132 for 16 hours (a proteasome inhibitor that triggers apoptosis; this toxicity is known to be opposed by PINK1). Following incubation with MG-132 we added 100 ul of Promega Caspase-Glo® reagent directly to each well to lyse cells and provide a luminescent Caspase 3/7 substrate peptide to quantify caspase cleavage activity. All of the values in Table 2 are presented as a % of kinetin's caspase cleavage values (kinentin was run as a positive control in parallel to the analogs of kinetin shown below).

[1] = tested on: mouse primary dopaminergic neuron culture; assay: Survival of TH positive dopaminergic neurons in primary mesencephalic culture injured by MPP+; assay type: cell-based; conditions: for TH neuron survival against MPP+, % of cell survival / dopaminergic (TH positive) neuron survival, percentage of control / decrease of TH positive neurons: MPP+ 4 μM for 48 h
From the text: Parkinson's disease (PD) is the second most common neurodegenerative disorder in the United States. The predominant motor symptoms of PD including slow movement, resting tremor, rigidity, and gait disturbance, are caused by the loss of dopaminergic neurons in the substantia nigra (SN). Although the aetiology of PD remains unknown, both genetic and environmental factors appear to play a role (Paisan-Ruiz et al., 2004; Vila & Przedborski, 2004). The neurotoxicant 1-methyl-4-phenyl-1, 2, 3, 6-tetrahydropyridine (MPTP) is a specific dopaminergic neuronal toxin. MPTP is converted to 1-methyl-4-phenyl pyridinium (MPP+) by astroglia and then causes specific dopaminergic neuronal death in the SN, thus leading to the clinical symptoms of PD in humans, primates and mice (Uhl et al., 1985). For this reason, MPTP-induced dopaminergic neurotoxicity in mice is widely used as a model for PD research. It has been largely reported that MPP+ causes neurodegeneration of dopaminergic neurones in vitro and provides a useful model of Parkinson's disease in vitro. […] This study investigated the neuroprotective effect of Mitokinin test compound (kinetin) in function on time of pre-incubation and concentration on mouse primary mesencephalic cultures injured by exposure to 1-methyl-4-phenylpyridinium (MPP+), a Parkinson' disease model in vitro. BDNF at 10 ng/ml will be used as a positive control in this study.
Mouse dopaminergic neurons are cultured as described by Schinelli et al., 1988 and Viswanath et al., 2001. Briefly pregnant female mouse of 14 days gestation are killed by cervical dislocation (Mouse C57Bl/6; Janvier Labs) and the foetuses are removed from the uterus. The embryonic midbrains are removed and placed in ice-cold medium of Leibovitz (L15; PanBiotech; ref: PO4-27055, batch: 4290114) containing 2% of Penicillin-Streptomycin (PS; PanBiotech; ref: P06-07100; batch: 4810114) and 1% of bovine serum albumin (BSA; PanBiotech; Ref: P06-1391100, batch: K030913). Only the ventral portions of the mesencephalic flexure are used for the cell preparations as this is the region of the developing brain rich in dopaminergic neurons. The midbrains are dissociated by trypsinisation for 20 min at 37° C. (Trypsin EDTA IX; PanBiotech Ref: P10-023100; batch: 1681013). The reaction is stopped by the addition of Dulbecco's modified Eagle's medium (DMEM; PanBiotech Ref PO4-03600; batch: 9710913) containing DNAase I grade II (0.1 mg/ml; Panbiotech, ref: P60-37780100; batch: H130919) and 10% of foetal calf serum (FCS; Invitrogen; ref: 10270-098; batch: 41Q4120K). Cells are then mechanically dissociated by 3 passages through a 10 ml pipette. Cells are then centrifuged at 180×g for 10 min at 4° C. temperature on a layer of BSA (3.5%) in L15 medium. The supernatant is discarded and the cells of pellet is re-suspended in a defined culture medium consisting of Neurobasal (Invitrogen, ref: 21103; batch: 1556347) supplemented with B27 (2%; Invitrogen; ref: 17504; batch: 1446691), L-glutamine (2 mM; PanBiotech; ref: PO4-80100; batch: 6620314) and 2% of PS solution. Viable cells are counted in a Neubauer cytometer using the trypan blue exclusion test. The cells are seeded at a density of 70 000 cells/well in 96 well-plates (wells are pre-coated with poly-L-lysine (Greiner)) and are cultured at 37° C. in a humidified air (95%)/CO2 (5%) atmosphere. Half of the medium are changed every 2 days with fresh medium. In these conditions, after 5 days of culture, astrocytes are present in the culture and release growth factor allowing neurons differentiation. Five to six percents of the neuronal cell population are dopaminergic neurons.
Briefly, on day 5 of culture, the medium was removed and fresh medium was added, without or with kinetin (Sigma ref 48130) at 100 μM, 50 μM, 25 μM and with and without BDNF 10 ng/ml for 2 days, 6 days or 10 days. […]

ND2 mutant flies = assay: Mechanical stress-induced (bang sensitive) paralysis test in ND2 mutant flies; assay type: in vivo, Drosophila; conditions: ND2 mutant flies treated throughout life with 10 μM of drug; tested after aging 15 days
From the text: Mutations affecting mitochondrial complex I, a multi-subunit assembly that couples electron transfer to proton pumping, are the most frequent cause of heritable mitochondrial diseases. Here, a Drosophila model of complex I deficiency caused by a homoplasmic mutation in the mitochondrial-encoded NADH dehydrogenase subunit 2 (ND2) gene is used. […] This ND2 mutant model was used in “bang sensitivity” behavioral analysis to show the effects of kinetin treatment.
All Drosophila strains were maintained on standard cornmeal/molasses medium at 25° C. with a 12-hour lightdark cycle. The ND2de11 and ND2ins1 stock was obtained from the laboratory of Dr. Patrick O'Farrell (University of California, San Francisco) (Xu et al., 2008). The isogenic w1118 stock was obtained from the Bloomington Drosophila Stock Center at Indiana University. […]
Drosophila strains with mutations affecting mitochondrial function often show an analogous seizure-like paralytic phenotype caused by mechanical-stress, termed “bang sensitivity” (Celotto et al., 2011; Fergestad et al., 2006; Ganetzky and Wu, 1982). […] Briefly, flies were vortexed for 10 seconds in inverted glass vials containing cotton stoppers, and the time required for each individual animal to right itself was recorded. […]
Unless otherwise stated statistical significance tests were calculated using an unpaired two-tailed Student's t-test.

In the case of `c1coc(CNc2ccnc3[nH]ncc23)c1` [MTK- 59, N-(furan-2-ylmethyl)-1H-pyrazolo[3,4-b]pyridin-4-amine], the “Run1 Compound (avg as % kinetin)” value (SH-SYSY cells) is reported as 72% and the “Run2 Compound (avg as % kinetin)” value (SH-SYSY cells) is reported as 108%.

In the case of `c1coc(CNc2ncnc3nc[nH]c23)c1` [Kinetin, kinetin], the “TH neuron survival against MPP+, % of cell survival” value ([1]; Kinetin 25 μM pre-incubated 10 days) is reported as 76%, the “dopaminergic (TH positive) neuron survival, percentage of control” value (“dopaminergic … percentage of control” below) ([1]; Kinetin 100 μM pre-incubated 2 days) is reported as 70% and the “dopaminergic … percentage of control” value ([1]; Kinetin 100 μM pre-incubated 6 days) is reported as 72%. For the same molecule, the “toxicity on dopaminergic neurons on long incubation” value ([1]; Kinetin 100 μM pre-incubated 10 days) was “toxic”, the “TH neuron survival against MPP+, % of cell survival” value ([1]; Kinetin 5004 pre-incubated 10 days) was 84% and the “mean time necessary for recovery (to right itself) after 10 seconds vortexing” value (ND2 mutant flies) was 0.5 s.

In the case of `c1coc(CNc2ncnc3[nH]ncc23)c1` [MTK- 51, N-(furan-2-ylmethyl)-1H-pyrazolo [3,4-d]pyrimidin-4-amine], the “Run1 Compound (avg as % kinetin)” value (SH-SYSY cells) is reported as 80% and the “Run2 Compound (avg as % kinetin)” value (SH-SYSY cells) is reported as 92%.

With `C[n+]1ccc(-c2ccccc2)cc1` [MPP^+, 1-methyl-4-phenylpyridinium] the “decrease of TH positive neurons” value ([1]; 2 days pre-incubation series (FIG. 1)) was about 50%, the “decrease of TH positive neurons” value ([1]; 6 days pre-incubation series (FIG. 2)) was about 54% and the “decrease of TH positive neurons” value ([1]; 10 days pre-incubation series (FIG. 3)) was about 47%.

`Nc1ncnc2nc[nH]c12` [Adenine] was tested, and the “mean time necessary for recovery (to right itself) after 10 seconds vortexing” value (ND2 mutant flies) was “approximately 9 seconds”.

For `c1coc(CC2CNc3ncnc4ncn2c34)c1` (stereo not shown) [MTK- 48, 7-(furan-2-ylmethyl)-8,9-dihydro-7H-imidazo[4,5,1-de]pteridine], the “Run1 Compound (avg as % kinetin)” value (SH-SYSY cells) was 92%, the “Run2 Compound (avg as % kinetin)” value (SH-SYSY cells) was 122% and the “Run3 Compound (avg as % kinetin)” value (SH-SYSY cells) was 95%.

`c1coc(CNc2ccnc3[nH]cnc23)c1` [MTK- 58, N-(furan-2-ylmethyl)-3H-imidazo[4,5-b]pyridin-7-amine] was tested, and the “Run1 Compound (avg as % kinetin)” value (SH-SYSY cells) was 94% and the “Run2 Compound (avg as % kinetin)” value (SH-SYSY cells) was 108%.

With `Cc1nc2c(NCc3ccco3)ncnc2[nH]1` [MTK- 64, N-(furan-2-ylmethyl)-8-methyl-9H-purin-6-amine] the “Run1 Compound (avg as % kinetin)” value (SH-SYSY cells) was 79%, the “Run2 Compound (avg as % kinetin)” value (SH-SYSY cells) was 120% and the “Run3 Compound (avg as % kinetin)” value (SH-SYSY cells) was 93%.

For `Nc1nc(NCc2ccco2)c2nc[nH]c2n1` [MTK- 68, N-6-(furan-2-ylmethyl)-9H-purine-2,6-diamine], the “Run1 Compound (avg as % kinetin)” value (SH-SYSY cells) was 95%.

In the case of `c1coc(CNc2nccc3[nH]ncc23)c1` [MTK- 62, N-(furan-2-ylmethyl)-1H-pyrazolo[4,3-c]pyridin-4-amine], the “Run1 Compound (avg as % kinetin)” value (SH-SYSY cells) is reported as 88% and the “Run2 Compound (avg as % kinetin)” value (SH-SYSY cells) is reported as 132%.

B1: BDNF: brain derived neurotrophic factor, used at 10 ng/ml as positive control (protein, UniProt P23560 19-247, looked up)
Neurotrophic factor BDNF …: APMKEANIRGQGGLAYPGVRTHGTLESVNGPKAGSRGLTSLADTFEHVIEELLDEDQKVRPNEENNKDADLYTSRVMLSSQVPLEPPLLFLLEEYKNYLDAANMSMRVRRHSDPARRGELSVCDSISEWVTAADKKTAVDMSGGTVTVLEKVPVSKGQLKQYFYETKCNPMGYTKEGCRGIDKRHWNSQCRTTQSYVRALTMDSKKRIGWRFIRIDTSCVCTLTIKRGR
B1 was tested, and the “dopaminergic … percentage of control” value ([1]; BDNF 10 ng/mL, 2 days pre-incubation series) was 87%, the “dopaminergic … percentage of control” value ([1]; BDNF 10 ng/mL, 6 days pre-incubation series) was 84% and the “dopaminergic … percentage of control” value ([1]; BDNF 10 ng/mL, 10 days pre-incubation series) was 91%.
